In patent US20250026752A1, “POSITIVE ALLOSTERIC MODULATORS OF THE MUSCARINIC ACETYLCHOLINE RECEPTOR M4” (Vanderbilt University, priority 2021, published 2025):

Biological target: T1, human mAChR M4 (Homo sapiens, UniProt P08173)
T1 construct: expressed in transfected cells; host or cells: CHO-K1 (ATCC), stably expressing hM4 and Gqi5
T1 sequence (P08173 1-479): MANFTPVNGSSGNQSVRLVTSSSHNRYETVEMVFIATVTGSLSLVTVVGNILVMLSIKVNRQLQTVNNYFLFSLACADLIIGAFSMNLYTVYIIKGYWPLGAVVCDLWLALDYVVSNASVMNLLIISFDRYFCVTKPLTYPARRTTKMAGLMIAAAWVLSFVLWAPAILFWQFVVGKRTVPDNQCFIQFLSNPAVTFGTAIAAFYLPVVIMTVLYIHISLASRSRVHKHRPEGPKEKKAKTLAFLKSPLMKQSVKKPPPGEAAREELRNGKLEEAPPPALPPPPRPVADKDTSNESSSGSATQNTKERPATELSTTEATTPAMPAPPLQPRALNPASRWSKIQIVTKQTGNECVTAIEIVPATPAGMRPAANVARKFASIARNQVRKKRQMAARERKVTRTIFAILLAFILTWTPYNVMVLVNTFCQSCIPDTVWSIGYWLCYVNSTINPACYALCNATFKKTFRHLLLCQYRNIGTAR
Assay: mAChR M4 cell-based functional assay: calcium flux (Fluo-4, FDSS), positive allosteric modulator activity on the EC20 acetylcholine response, hM4-Gqi5 CHO-K1 cells
Details: for Emax at 30 µM: CHO-K1, human M4, % ACh maximum at 30 μM; for EC50: human M4, PAM activity on EC20 acetylcholine response, calcium flux, read-out: Human M4 EC50
Procedure, shortened: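 CHO-K1 cells stably expressing human M4 with chimeric Gqi5, loaded with Fluo-4 AM for 50 min at 37° C. Compounds (11-point, 1:3 dilutions) added first, then an acetylcholine EC20 at 144 s; calcium read on FDSS at 1 Hz. EC50 is the half-maximal increase above the EC20 baseline, four-parameter logistic fit.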

| Structure (SMILES) | Emax at 30 µM | EC50 |
| --- | --- | --- |
| Fc1ccc2nc(NC3CC(F)(F)C3)nc(N3CCc4ncc(C(F)(F)F)cc4C3)c2c1 [Compound 184, N-(3,3-difluorocyclobutyl)-6-fluoro-4-[3-(trifluoromethyl)-7,8-dihydro-5H-1,6-naphthyridin-6-yl]quinazolin-2-amine] | 93% | 1380 nM |
| CN(C)c1ccc(-c2cnc3c(c2)CN(c2ncnc4ccc(Cl)cc24)CC3)cn1 [Compound 41, 5-[6-(6-chloroquinazolin-4-yl)-7,8-dihydro-5H-1,6-naphthyridin-3-yl]-N,N-dimethyl-pyridin-2-amine] | 74% | 430 nM |
| CN1CCN(c2cnc3c(c2)CN(c2ncnc4ccc(F)cc24)CC3)CC12COC2 [Compound 283, 8-(6-(6-fluoroquinazolin-4-yl)-5,6,7,8-tetrahydro-1,6-naphthyridin-3-yl)-5-methyl-2-oxa-5,8-diazaspiro[3.5]nonane] | 99% | 700 nM |
| CC(C)n1nccc1-c1cnc2c(c1)CN(c1ncnc3cc(F)c(F)cc13)CC2 [Compound 268, 6,7-difluoro-4-(3-(1-isopropyl-1H-pyrazol-5-yl)-7,8-dihydro-1,6-naphthyridin-6(5H)-yl)quinazoline] | 85% | 190 nM |
| CC1CN(c2ncnc3ccc(Cl)cc23)Cc2cc(N3CCOCC3)cnc21 (centres unmarked) [Compound 253, 4-(6-(6-chloroquinazolin-4-yl)-8-methyl-5,6,7,8-tetrahydro-1,6-naphthyridin-3-yl)morpholine] | 96% | 30 nM |
| CN1CCN(c2cnc3c(c2)CN(c2ncnc4ccc(F)cc24)CC3)CC1=O [Compound 272, 4-(6-(6-fluoroquinazolin-4-yl)-5,6,7,8-tetrahydro-1,6-naphthyridin-3-yl)-1-methylpiperazin-2-one] | 92% | 1150 nM |
| Fc1ccc2nc(Cl)nc(N3CCc4ncc(C(F)(F)F)cc4C3)c2c1 [Compound 120, 2-chloro-6-fluoro-4-[3-(trifluoromethyl)-7,8-dihydro-5H-1,6-naphthyridin-6-yl]quinazoline] | 91% | 100 nM |
| FC(F)(F)c1cnc2c(c1)CN(c1ncnc3ccc(Cl)cc13)CC2 [Compound 140, 6-chloro-4-[3-(trifluoromethyl)-7,8-dihydro-5H-1,6-naphthyridin-6-yl]quinazoline] | 105% | 80 nM |
| Cc1ccc2ncnc(N3CCc4ncc(C5CC5)cc4C3)c2c1 [Compound 160, 4-(3-cyclopropyl-7,8-dihydro-5H-1,6-naphthyridin-6-yl)-6-methyl-quinazoline] | 90% | 30 nM |
| Cn1cc(-c2cnc3c(c2)CN(c2nc(Cl)nc4cc(Cl)c(F)cc24)CC3)cn1 [Compound 62, 2,7-dichloro-6-fluoro-4-[3-(1-methylpyrazol-4-yl)-7,8-dihydro-5H-1,6-naphthyridin-6-yl]quinazoline] | 34% | 410 nM |
| Cc1nc(N2CCc3ncc(-c4cnc(C)s4)cc3C2)c2cc(C(F)(F)F)ccc2n1 [Compound 56, 2-methyl-5-[6-[2-methyl-6-(trifluoromethyl)quinazolin-4-yl]-7,8-dihydro-5H-1,6-naphthyridin-3-yl]thiazole] | 45% | 1930 nM |
| COc1ccc2nc(C)nc(N3CCc4ncc(C(F)(F)F)cc4C3)c2c1 [Compound 168, 6-methoxy-2-methyl-4-[3-(trifluoromethyl)-7,8-dihydro-5H-1,6-naphthyridin-6-yl]quinazoline] | 71% | 510 nM |
| FC(F)(F)c1cnc2c(c1)CN(c1nc(Cl)nc3ncccc13)CC2 [Compound 121, 2-chloro-4-[3-(trifluoromethyl)-7,8-dihydro-5H-1,6-naphthyridin-6-yl]pyrido[2,3-d]pyrimidine] | 69% | 360 nM |
| Cc1nc(N2CCc3ncc(N4CCOC(c5cccnc5)C4)cc3C2)c2cc(F)ccc2n1 (centres unmarked) [Compound 230, 4-(6-(6-fluoro-2-methylquinazolin-4-yl)-5,6,7,8-tetrahydro-1,6-naphthyridin-3-yl)-2-(pyridin-3-yl)morpholine] | 86% | 500 nM |
| Cc1ccc2nc(C3CC3)nc(N3CCc4ncc(-c5cnn(C6CC6)c5)cc4C3)c2c1 [Compound 175, 2-cyclopropyl-4-[3-(1-cyclopropylpyrazol-4-yl)-7,8-dihydro-5H-1,6-naphthyridin-6-yl]-6-methyl-quinazoline] | 77% | 560 nM |
| Fc1ccc2ncnc(N3CCc4ncc(N5CCOC(c6ccccn6)C5)cc4C3)c2c1 (centres unmarked) [Compound 223, 4-(6-(6-fluoroquinazolin-4-yl)-5,6,7,8-tetrahydro-1,6-naphthyridin-3-yl)-2-(pyridin-2-yl)morpholine] | 65% | 670 nM |
| Cc1cnn(C)c1-c1cnc2c(c1)CN(c1ncnc3ccc(F)cc13)CC2 [Compound 266, 4-(3-(1,4-dimethyl-1H-pyrazol-5-yl)-7,8-dihydro-1,6-naphthyridin-6(5H)-yl)-6-fluoroquinazoline] | 90% | 60 nM |
| Clc1ccc2ncnc(N3CCc4ncc(C5CC5)cc4C3)c2c1 [Compound 231, 6-chloro-4-(3-cyclopropyl-7,8-dihydro-1,6-naphthyridin-6(5H)-yl)quinazoline] | 92% | 50 nM |
| Fc1ccc2ncnc(N3CCc4ncc(Nc5ccncc5F)cc4C3)c2c1 [Compound 315, N-(3-fluoropyridin-4-yl)-6-(6-fluoroquinazolin-4-yl)-5,6,7,8-tetrahydro-1,6-naphthyridin-3-amine] | 81% | 10 nM |
| Cc1nc(N2Cc3cc(C(F)(F)F)cnc3C(C)(C)C2)c2cc(F)ccc2n1 [Compound 118, 4-[8,8-dimethyl-3-(trifluoromethyl)-5,7-dihydro-1,6-naphthyridin-6-yl]-6-fluoro-2-methyl-quinazoline] | 63% | 8390 nM |
| Cc1nc(N2CCc3ncc(C(F)(F)F)cc3C2)c2cc(F)ccc2n1 [Compound 130, 6-fluoro-2-methyl-4-[3-(trifluoromethyl)-7,8-dihydro-5H-1,6-naphthyridin-6-yl]quinazoline] | 86% | 80 nM |
| Cc1nc(N2CCc3ncc(Oc4ccccc4F)cc3C2)c2cc(F)ccc2n1 [Compound 133, 6-fluoro-4-[3-(2-fluorophenoxy)-7,8-dihydro-5H-1,6-naphthyridin-6-yl]-2-methyl-quinazoline] | 87% | 230 nM |
| Fc1ccc2ncnc(N3CCc4ncc(N5CCO[C@H](c6ccccc6)C5)cc4C3)c2c1 [Compound 216, (R)-4-(6-(6-fluoroquinazolin-4-yl)-5,6,7,8-tetrahydro-1,6-naphthyridin-3-yl)-2-phenylmorpholine] | 81% | 1050 nM |
| Cc1nc(N2CCc3ncc(-c4ccccc4C)cc3C2)c2cc(Cl)ccc2n1 [Compound 302, 6-chloro-2-methyl-4-(3-(o-tolyl)-7,8-dihydro-1,6-naphthyridin-6(5H)-yl)quinazoline] | 94% | 5370 nM |
| Clc1ccc2ncnc(N3CCc4ncc(-c5ccc(C6CC6)nc5)cc4C3)c2c1 [Compound 42, 6-chloro-4-[3-(6-cyclopropyl-3-pyridyl)-7,8-dihydro-5H-1,6-naphthyridin-6-yl]quinazoline] | 72% | 380 nM |
